From ChEMBL document CHEMBL3046779, “Synthesis and anti-juvenile hormone activity of ethyl 4-[(6-substituted 2,2-dimethyl-2H-chromen-7-yl)methoxy]benzoates” (2010)

Assays:
Format in all cases: functional
Bombyx mori [1] = assay: Antijuvenile hormone activity against allatectomized third-instar larvae of Bombyx mori assessed as number of larvae transformed into fifth instar larvae at 1 ug/larva (reference value: 0)
Bombyx mori [2] = assay: Antijuvenile hormone activity against allatectomized third-instar larvae of Bombyx mori assessed as number of larvae transformed into fifth-instar larvae at 40 ug/larva (reference value: 0)
Bombyx mori [3] = assay: Antijuvenile hormone activity against third-instar larvae of Bombyx mori assessed as precocious metamorphosis-inducing activity at 1 ug/larva
Bombyx mori [4] = assay: Antijuvenile hormone activity against third-instar larvae of Bombyx mori assessed as precocious metamorphosis-inducing activity at 10 ug/larva
Bombyx mori [5] = assay: Antijuvenile hormone activity against third-instar larvae of Bombyx mori assessed as precocious metamorphosis-inducing activity at 40 ug/larva
Bombyx mori [6] = assay: Antijuvenile hormone activity against allatectomized third-instar larvae of Bombyx mori assessed as number of larvae transformed into precocious pupa at 1 ug/larva (reference value: 10)
Bombyx mori [7] = assay: Antijuvenile hormone activity against allatectomized third-instar larvae of Bombyx mori assessed as number of larvae transformed into precocious pupa at 40 ug/larva (reference value: 10)
Bombyx mori [8] = assay: Antijuvenile hormone activity against allatectomized third-instar larvae of Bombyx mori assessed as number of larvae transformed into larval pupa intermediate at 1 ug/larva (reference value: 0)
Bombyx mori [9] = assay: Antijuvenile hormone activity against allatectomized third-instar larvae of Bombyx mori assessed as number of larvae transformed into larval pupa intermediate at 40 ug/larva (reference value: 0)

Row | Compound | Activity (Bombyx mori [1]) | Activity (Bombyx mori [2]) | Activity (Bombyx mori [3]) [%] | Activity (Bombyx mori [4]) [%] | Activity (Bombyx mori [5]) [%] | Activity (Bombyx mori [6]) | Activity (Bombyx mori [7]) | Activity (Bombyx mori [8]) | Activity (Bombyx mori [9])
1 | CCOC(=O)c1ccc(OCc2cc3c(cc2OC)C=CC(C)(C)O3)cc1 | 2 | 10 | 75 | 95 | 100 | 2 | 0 | 6 | 0
2 | CCCOc1cc2c(cc1COc1ccc(C(=O)OCC)cc1)OC(C)(C)C=C2 |  |  | 0 | 0 | 16 |  |  |  | 
3 | CCOC(=O)c1ccc(OCc2cc3c(cc2OC)OCCO3)cc1 |  |  | 10 | 58 | 79 |  |  |  | 
4 | CCOC(=O)c1ccc(OCc2ccc3c(c2)OC(C)(C)C=C3)cc1 |  |  | 0 | 20 | 65 |  |  |  | 
5 | CCOC(=O)c1ccc(OCc2cc3c(cc2OCC)C=CC(C)(C)O3)cc1 |  |  | 0 | 5 | 20 |  |  |  | 
6 | CCOC(=O)c1ccc(OCc2cc3c(cc2OC)CCCC3)cc1 |  |  | 0 | 10 | 30 |  |  |  | 
7 | CCOC(=O)c1ccc(OCc2cc3c(cc2OC)CCC(C)(C)O3)cc1 |  | 10 | 46 | 94 | 87 |  | 0 |  | 0
8 | CCOC(=O)c1ccc(OCc2cc3c(cc2OCc2ccccc2)C=CC(C)(C)O3)cc1 |  |  | 40 | 100 | 100 |  |  |  | 
9 | COC(C)(C)CCC[C@H](C)C/C=C/C(C)=C/C(=O)OC(C)C [METHOPRENE] | 10 |  |  |  |  | 0 |  | 0 | 
10 | CCOC(=O)c1ccc(OCc2cc(OC)c(OC)cc2OC)cc1 |  |  | 0 | 0 | 0 |  |  |  | 
